Results: patent US6040149A, “Assay for identifying agents which act on the ceramide-activated protein kinase, kinase suppressor of ras, and methods of using said agents” (priority 1997, dated 2000)

System: neutral sphingomyelinase
Experiment: Sphingomyelin and ceramide concentrations in a cell-free system (HL-60 nuclei-free supernate)
Format: biochemical, human (HL-60 cells)
Description: TNF-α effects on sphingomyelin (A) and ceramide (B) concentrations in a cell-free system. HL-60 cells were grown in RPMI 1640 medium supplemented with 10% bovine calf serum and amino acids. To measure sphingomyelin, cells were resuspended (1×10^6 ml^-1), labeled for 48 hours in medium with [^3 H]choline (1 μCi ml^-1), in serum-free medium containing bovine insulin (5 μg ml^-1) and human transferrin (5 μg ml^-1). After 3 hours, cells were resuspended (150×10^6 ml^-1) in homogenization buffer (50 mM NaF, 5 mM EGTA, and 25 mM Hepes, pH 7.4), disrupted at 4° C. with 150 strokes of a tight-fitting Dounce homogenizer (Fisher Scientific, Pittsburgh, Pa.), and centrifuged for 5 minutes (500 g). The nuclei-free supernate was first incubated for 5 minutes at 4° C. with 30 nM human TNF-α (Genentech, South San Francisco, Calif.) or diluent (50 mM Hepes, pH 7.4). At time zero, 15 μl of supernate (112 μg per incubation) were added to a reaction mixture containing 30 μl of 25 mM Hepes, pH 7.4, 30 μl of 750 μM ATP, and 75 μl of reaction buffer (50 mM Hepes, pH 7.4 and 20 mM MgCl2) at 22° C. The reaction was terminated with CHCl3 :CH3 OH:HCl (100:100:1, v/v/v) and 150 μl of balanced salt solution (135 mM NaCl, 4.5 mM KCl, 1.5 mM CaCl2, 0.5 mM MgCl2, 5.6 mM glucose, and 10 mM Hepes, pH 7.2) containing 20 mM EDTA. Lipids in the organic phase extract were subjected to alkaline methanolysis to remove glycerophospholipids. Sphingomyelin recovery in the nuclei-free supernate was 93% of that in intact cells. A measure of 10^6 cell equivalents of supernate contained 50 μg of protein. Sphingomyelin was resolved by thin-layer chromatography (TLC) with CHCl3 :CH3 OH:CH3 COOH:H2 O (25:15:4:1.5) as solvent, identified by iodine vapor staining and quantified by liquid scintillation spectrometry. Ceramide was quantified with the diacylglycerol kinase reaction. Values (mean) are derived from triplicate determinations from one experiment representative of three similar studies for sphingomyelin and four similar studies for ceramide.
The binding of TNF-α to its receptor is detectable within 2 minutes and maximal by 5 to 10 minutes at 4° C. in membranes derived from HL-60 cells. Therefore, supernates from HL-60 cells, collected after a low-speed centrifugation to remove nuclei, were first incubated with TNF-α for 5 minutes at 4° C. to allow the formation of TNF-receptor complexes. Thereafter, reactions were initiated by warming supernates to 22° C. in a reaction mixture containing adenosine triphosphate (ATP) and Mg^2+ at pH 7.4.
These conditions were adopted to allow for activation of neutral sphingomyelinase. Under these conditions, TNF-α induced a time- and concentration-dependent reduction in sphingomyelin content (FIG. 9A). The effect of TNF-α was evident at 1 minute and maximal by 7.5 minutes. Sphingomyelin concentrations decreased 27% from a control concentration of 10.4±0.5 (mean±SEM) to 7.6±0.2 nmol per milligram (nmol mg^-1) of supernate protein (P<0.001). […] Concentrations of TNF-α of 300 pM were effective, with a maximal effect at 3 nM TNF-α [effective dose (ED50)≈500 pM]. Under the same conditions, ceramide increased quantitatively from 1.8±0.3 to 4.0±0.5 nmol mg^-1 (FIG. 9B). This effect was detectable at 1 minute (P<0.001) and maximal by 7.5 minutes. Thus, 2.8 nmol of sphingomyelin per milligram of supernate protein were lost for each 2.2 nmol of ceramide per milligram of supernate protein that was generated. […] Other choline-containing lipids, including phosphatidyl-choline, lysophosphatidylcholine, sphingosylphosphorylcholine, and 1,2-diacylglycerol were not affected by TNF-α.

TNF-α
effect on other choline-containing lipids and 1,2-diacylglycerol (TNF-α): not affected
decrease in sphingomyelin concentration (TNF-α 30 nM, cell-free): 27%
ceramide generated (TNF-α, cell-free): 2.2 nmol per milligram of supernat
sphingomyelin lost (TNF-α, cell-free): 2.8 nmol per milligram of supernat
sphingomyelin concentration (after TNF-α, control 10.4±0.5, mean±SEM, P<0.001): 7.6±0.2 nmol per milligram (nmol mg^-1) of supernate protein
ceramide concentration (after TNF-α, from 1.8±0.3): 4.0 ± 0.5 nmol/mg
ED50 (sphingomyelin reduction) (cell-free): ≈ 500 pM
concentration of maximal effect (sphingomyelin reduction) (cell-free): 3 nM
effective concentration (sphingomyelin reduction) (cell-free): 300 pM
onset of sphingomyelin reduction (cell-free): 1 min
time to maximal ceramide increase (cell-free): ≤ 7.5 min
time to maximal sphingomyelin reduction (cell-free): ≤ 7.5 min
onset of ceramide increase (cell-free, P<0.001): 1 min
